Results taken from patent publication EP0386243A1, “PLATINUM (II) COMPLEXES” (SAGAMI CHEMICAL RESEARCH CENTER, priority 1987, dated 1989).
Where two headings read alike, the source gives them in different places.

How the values were obtained:
[1] = Toxicity: S-GPT (serum transaminase) and BUN (blood urea nitrogen) levels; type: in vivo
[2] = system: Mouse lymphatic leukemia tumor cells, P-388; assay: Growth suppressing effect on mouse lymphatic leukemia tumor cells P-388 (48 h culture, Coulter counter cell count); type: cell-based; conditions: P-388 cells 5 x 10^4 cells/ml, 37°C, no more than 0.5% DMSO
Protocol: The number of suspended cells was counted with a Coulter counter and ICso values were determined from dose response curves that were constructed for the respective compounds on the basis of percent growth inhibition as compared to the absence of the compounds.

| Compound | S-GPT (serum transaminase) ([1]; indicator of hepatotoxicity) | BUN (blood urea nitrogen) ([1]; indicator of nephrotoxicity) | IC50 [2] [µg/mL] | IC50 ([2]; read-out: IC50) [nM] |
| --- | --- | --- | --- | --- |
| bis{β-methyl(p-isobutylphenylpyruvato)}(trans-Q-1,2-diaminocyclohexane)platinum (II) [Compound No. 14] | did not cause any appreciable increase | did not cause any appreciable increase |  |  |
| CC(C(=O)C(=O)[O-])c1ccc(C(=O)[O-])cc1.CC(C(=O)C(=O)[O-])c1ccc(C(=O)[O-])cc1.C[NH2+]C.C[NH2+]C.NC1CCCCC1N.[Pt+2] (stereo not drawn) [Compound No. 33, bis{β-methyl(p-carboxyphenylpyruvato)}(trans-d,ℓ-1,2-diaminocyclohexane)platinum (II) bis(dimethylammonium) salt] |  |  | 0.024 | 28 |
| bis(β-methylphenylpyruvato)ethylenediamine platinum (II) [Compound No. 17] |  |  |  | > 10000 |
